Data reported in patent US7589213B2 (priority 2007, dated 2009).

Tests used:
EP2 [1] = biological target: T1, EP2 (Homo sapiens, UniProt P43116); experiment: EP2 flipr assay; type: cell-based
Source text: (§1) U.S. patent application Ser. No. 11/553,143, filed on Oct. 26, 2006, incorporated by reference herein, describes the methods used to obtain the in vitro data in the table below.

EP2 [2] = biological target: T1, EP2; experiment: EP2 cAMP assay; type: cell-based
Source text: as §1

EP2 [3] = biological target: T1, EP2; experiment: EP2 binding (Ki)
Source text: as §1

hFP = hFP (Homo sapiens, UniProt P43088); experiment: Other receptors functional EC50, hFP; type: cell-based
Chain of hFP (P43088 whole entry): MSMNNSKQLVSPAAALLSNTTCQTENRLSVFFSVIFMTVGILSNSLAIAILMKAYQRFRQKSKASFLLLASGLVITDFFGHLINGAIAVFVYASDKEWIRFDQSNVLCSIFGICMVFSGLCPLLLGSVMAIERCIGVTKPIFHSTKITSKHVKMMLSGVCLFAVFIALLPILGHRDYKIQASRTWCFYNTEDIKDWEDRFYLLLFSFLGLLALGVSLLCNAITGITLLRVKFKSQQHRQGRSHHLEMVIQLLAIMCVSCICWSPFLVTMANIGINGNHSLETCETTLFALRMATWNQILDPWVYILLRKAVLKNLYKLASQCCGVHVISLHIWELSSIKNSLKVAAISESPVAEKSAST
Source text: as §1

hTP = biological target: T2, hTP (Homo sapiens, UniProt P21731); experiment: Other receptors functional EC50, hTP; type: cell-based
T2 sequence (P21731 1-343): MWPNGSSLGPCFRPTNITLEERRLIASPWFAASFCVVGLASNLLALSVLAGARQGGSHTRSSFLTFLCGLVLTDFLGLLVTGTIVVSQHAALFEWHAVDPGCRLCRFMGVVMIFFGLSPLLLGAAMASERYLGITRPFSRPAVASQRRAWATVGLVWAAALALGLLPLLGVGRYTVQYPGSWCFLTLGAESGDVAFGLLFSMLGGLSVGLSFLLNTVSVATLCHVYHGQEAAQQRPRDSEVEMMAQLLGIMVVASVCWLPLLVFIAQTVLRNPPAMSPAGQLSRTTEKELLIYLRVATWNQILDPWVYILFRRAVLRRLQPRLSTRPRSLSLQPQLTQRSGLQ
Source text: as §1

hDP = biological target: T3, hDP (Homo sapiens, UniProt Q13258); experiment: Other receptors functional EC50, hDP; type: cell-based
T3 sequence (Q13258 1-359): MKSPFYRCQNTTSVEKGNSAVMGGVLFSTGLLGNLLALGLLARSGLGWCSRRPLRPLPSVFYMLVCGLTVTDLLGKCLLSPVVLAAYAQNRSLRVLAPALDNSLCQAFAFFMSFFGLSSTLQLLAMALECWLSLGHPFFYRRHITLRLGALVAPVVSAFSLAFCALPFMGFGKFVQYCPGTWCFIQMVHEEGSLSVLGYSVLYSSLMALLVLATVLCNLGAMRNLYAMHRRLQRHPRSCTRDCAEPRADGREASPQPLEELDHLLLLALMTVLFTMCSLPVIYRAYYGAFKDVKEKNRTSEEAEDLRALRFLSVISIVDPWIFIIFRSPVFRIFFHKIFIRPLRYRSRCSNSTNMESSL
Source text: as §1

T1 sequence (P43116 whole entry): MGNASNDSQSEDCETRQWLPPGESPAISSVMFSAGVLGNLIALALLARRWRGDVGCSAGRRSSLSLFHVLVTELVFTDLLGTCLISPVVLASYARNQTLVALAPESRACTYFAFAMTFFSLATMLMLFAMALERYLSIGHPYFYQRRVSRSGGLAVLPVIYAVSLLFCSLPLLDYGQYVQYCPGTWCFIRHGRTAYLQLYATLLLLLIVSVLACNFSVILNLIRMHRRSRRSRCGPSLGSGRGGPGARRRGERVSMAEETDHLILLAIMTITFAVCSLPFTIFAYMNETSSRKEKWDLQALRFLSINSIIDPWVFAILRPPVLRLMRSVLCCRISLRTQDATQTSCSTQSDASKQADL

- EC50 (EP2 [1]): 5.89 µM
- EC50 (EP2 [2]): 0.038 µM
- Ki (EP2 [3]): 0.215 µM
- EC50 (hFP): > 10000 nM
- EC50 (hTP): > 10000 nM
- EC50 (hDP): 4640 nM
SMILES: O=C(O)c1ccc(COC[C@H]2CCC(=O)N2c2ccc(-c3nccs3)cc2)s1 [compound 58, (R)-5-(((5-oxo-1-(4-(thiazol-2-yl)phenyl)pyrrolidin-2-yl)methoxy)methyl)thiophene-2-carboxylic acid]
